# Test system: Unknown protein yeast genes
# Experiment: DNA chip mRNA expression in yeast, unknown protein yeast genes (Table 1)
# Type: cell-based, Saccharomyces cerevisiae S288C
# How it was run: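 Whole-genome yeast DNA chip hybridization (65° C., >12 h) of Cy-labeled cDNA from S288C cells exposed 2 h at 25° C. to a sub-lethal toxicant dose in YPD; value is intensity relative to chemical-free control.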
smiles,measurement,setting,value
"Oc1cc(Cl)c(Cl)cc1Cl [(6), 2,4,5-trichlorophenol]",The level of expressed mRNA in the presence of chemical substance/The level of expressed mRNA in the absence of chemical substance,"yeast gene YAL053W, incubated two hours with chemical substance",1.1
same,The level of expressed mRNA in the presence of chemical substance/The level of expressed mRNA in the absence of chemical substance,yeast gene YBL048W,2.0
same,The level of expressed mRNA in the presence of chemical substance/The level of expressed mRNA in the absence of chemical substance,yeast gene YBL107C,1.1
same,The level of expressed mRNA in the presence of chemical substance/The level of expressed mRNA in the absence of chemical substance,"yeast gene YDL072C, incubated two hours with chemical substance",1.5
same,The level of expressed mRNA in the presence of chemical substance/The level of expressed mRNA in the absence of chemical substance,yeast gene YDL146W,0.7
same,The level of expressed mRNA in the presence of chemical substance/The level of expressed mRNA in the absence of chemical substance,"yeast gene YDL204W, incubated two hours with chemical substance",5.6
same,The level of expressed mRNA in the presence of chemical substance/The level of expressed mRNA in the absence of chemical substance,"yeast gene YDL222C, incubated two hours with chemical substance",1.4
same,The level of expressed mRNA in the presence of chemical substance/The level of expressed mRNA in the absence of chemical substance,yeast gene YDR057W,0.7
same,The level of expressed mRNA in the presence of chemical substance/The level of expressed mRNA in the absence of chemical substance,"yeast gene YDR330W, incubated two hours with chemical substance",2.3
same,The level of expressed mRNA in the presence of chemical substance/The level of expressed mRNA in the absence of chemical substance,"yeast gene YDR411C, incubated two hours with chemical substance",0.8
same,The level of expressed mRNA in the presence of chemical substance/The level of expressed mRNA in the absence of chemical substance,yeast gene YDR476C,3.1
same,The level of expressed mRNA in the presence of chemical substance/The level of expressed mRNA in the absence of chemical substance,"yeast gene YDR511W, incubated two hours with chemical substance",2.0
same,The level of expressed mRNA in the presence of chemical substance/The level of expressed mRNA in the absence of chemical substance,"yeast gene YDR545W, incubated two hours with chemical substance",1.0
same,The level of expressed mRNA in the presence of chemical substance/The level of expressed mRNA in the absence of chemical substance,"yeast gene YEL001C, incubated two hours with chemical substance",1.3
same,The level of expressed mRNA in the presence of chemical substance/The level of expressed mRNA in the absence of chemical substance,"yeast gene YER004W, incubated two hours with chemical substance",1.2
same,The level of expressed mRNA in the presence of chemical substance/The level of expressed mRNA in the absence of chemical substance,"yeast gene YER035W, incubated two hours with chemical substance",0.9
same,The level of expressed mRNA in the presence of chemical substance/The level of expressed mRNA in the absence of chemical substance,"yeast gene YER079W, incubated two hours with chemical substance",1.5
same,The level of expressed mRNA in the presence of chemical substance/The level of expressed mRNA in the absence of chemical substance,"yeast gene YER106W, incubated two hours with chemical substance",1.1
same,The level of expressed mRNA in the presence of chemical substance/The level of expressed mRNA in the absence of chemical substance,"yeast gene YER158C, incubated two hours with chemical substance",0.7
same,The level of expressed mRNA in the presence of chemical substance/The level of expressed mRNA in the absence of chemical substance,"yeast gene YER163C, incubated two hours with chemical substance",2.0
same,The level of expressed mRNA in the presence of chemical substance/The level of expressed mRNA in the absence of chemical substance,"yeast gene YER175C, incubated two hours with chemical substance",0.8
same,The level of expressed mRNA in the presence of chemical substance/The level of expressed mRNA in the absence of chemical substance,"yeast gene YFL006W, incubated two hours with chemical substance",1.2
same,The level of expressed mRNA in the presence of chemical substance/The level of expressed mRNA in the absence of chemical substance,"yeast gene YFL010C, incubated two hours with chemical substance",1.9
same,The level of expressed mRNA in the presence of chemical substance/The level of expressed mRNA in the absence of chemical substance,yeast gene YFL024C,2.0
same,The level of expressed mRNA in the presence of chemical substance/The level of expressed mRNA in the absence of chemical substance,"yeast gene YFL032W, incubated two hours with chemical substance",0.6
same,The level of expressed mRNA in the presence of chemical substance/The level of expressed mRNA in the absence of chemical substance,yeast gene YFL046W,0.7
same,The level of expressed mRNA in the presence of chemical substance/The level of expressed mRNA in the absence of chemical substance,"yeast gene YGL037C, incubated two hours with chemical substance",1.3
same,The level of expressed mRNA in the presence of chemical substance/The level of expressed mRNA in the absence of chemical substance,"yeast gene YGL047W, incubated two hours with chemical substance",1.5
same,The level of expressed mRNA in the presence of chemical substance/The level of expressed mRNA in the absence of chemical substance,"yeast gene YGL053W, incubated two hours with chemical substance",2.7
same,The level of expressed mRNA in the presence of chemical substance/The level of expressed mRNA in the absence of chemical substance,yeast gene YGL059W,0.7
same,The level of expressed mRNA in the presence of chemical substance/The level of expressed mRNA in the absence of chemical substance,yeast gene YGL121C,9.8
same,The level of expressed mRNA in the presence of chemical substance/The level of expressed mRNA in the absence of chemical substance,"yeast gene YGL199C, incubated two hours with chemical substance",0.7
same,The level of expressed mRNA in the presence of chemical substance/The level of expressed mRNA in the absence of chemical substance,yeast gene YGR024C,0.7
same,The level of expressed mRNA in the presence of chemical substance/The level of expressed mRNA in the absence of chemical substance,"yeast gene YGR101W, incubated two hours with chemical substance",0.9
same,The level of expressed mRNA in the presence of chemical substance/The level of expressed mRNA in the absence of chemical substance,yeast gene YGR110W,0.9
same,The level of expressed mRNA in the presence of chemical substance/The level of expressed mRNA in the absence of chemical substance,"yeast gene YGR130C, incubated two hours with chemical substance",0.9
same,The level of expressed mRNA in the presence of chemical substance/The level of expressed mRNA in the absence of chemical substance,"yeast gene YGR154C, incubated two hours with chemical substance",1.4
same,The level of expressed mRNA in the presence of chemical substance/The level of expressed mRNA in the absence of chemical substance,"yeast gene YGR221C, incubated two hours with chemical substance",3.0
same,The level of expressed mRNA in the presence of chemical substance/The level of expressed mRNA in the absence of chemical substance,yeast gene YHL042W,0.7
same,The level of expressed mRNA in the presence of chemical substance/The level of expressed mRNA in the absence of chemical substance,yeast gene YHR029C,2.7
same,The level of expressed mRNA in the presence of chemical substance/The level of expressed mRNA in the absence of chemical substance,"yeast gene YHR138C, incubated two hours with chemical substance",3.8
same,The level of expressed mRNA in the presence of chemical substance/The level of expressed mRNA in the absence of chemical substance,"yeast gene YHR199C, incubated two hours with chemical substance",1.1
same,The level of expressed mRNA in the presence of chemical substance/The level of expressed mRNA in the absence of chemical substance,"yeast gene YIL023C, incubated two hours with chemical substance",0.9
same,The level of expressed mRNA in the presence of chemical substance/The level of expressed mRNA in the absence of chemical substance,"yeast gene YIL041W, incubated two hours with chemical substance",1.0
same,The level of expressed mRNA in the presence of chemical substance/The level of expressed mRNA in the absence of chemical substance,"yeast gene YIL087C, incubated two hours with chemical substance",4.1
same,The level of expressed mRNA in the presence of chemical substance/The level of expressed mRNA in the absence of chemical substance,"yeast gene YJL057C, incubated two hours with chemical substance",1.4
same,The level of expressed mRNA in the presence of chemical substance/The level of expressed mRNA in the absence of chemical substance,"yeast gene YJL066C, incubated two hours with chemical substance",1.4
same,The level of expressed mRNA in the presence of chemical substance/The level of expressed mRNA in the absence of chemical substance,"yeast gene YJL082W, incubated two hours with chemical substance",0.2
same,The level of expressed mRNA in the presence of chemical substance/The level of expressed mRNA in the absence of chemical substance,yeast gene YJL144W,1.7
same,The level of expressed mRNA in the presence of chemical substance/The level of expressed mRNA in the absence of chemical substance,"yeast gene YJL151C, incubated two hours with chemical substance",2.2
same,The level of expressed mRNA in the presence of chemical substance/The level of expressed mRNA in the absence of chemical substance,"yeast gene YJL152W, incubated two hours with chemical substance",1.5
same,The level of expressed mRNA in the presence of chemical substance/The level of expressed mRNA in the absence of chemical substance,"yeast gene YJL161W, incubated two hours with chemical substance",8.0
same,The level of expressed mRNA in the presence of chemical substance/The level of expressed mRNA in the absence of chemical substance,yeast gene YJL163C,2.8
same,The level of expressed mRNA in the presence of chemical substance/The level of expressed mRNA in the absence of chemical substance,"yeast gene YJL171C, incubated two hours with chemical substance",2.7
same,The level of expressed mRNA in the presence of chemical substance/The level of expressed mRNA in the absence of chemical substance,"yeast gene YJR008W, incubated two hours with chemical substance",2.2
same,The level of expressed mRNA in the presence of chemical substance/The level of expressed mRNA in the absence of chemical substance,"yeast gene YJR054W, incubated two hours with chemical substance",0.7
same,The level of expressed mRNA in the presence of chemical substance/The level of expressed mRNA in the absence of chemical substance,yeast gene YKL071W,18.6
